The test system of this test is M. tuberculosis H37Rv growth inhibition with meropenem. In words: dose response, H37Rv, with and without meropenem (AID 434987).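 Also: growth over 7 days at 37 °C before Alamar Blue read on day 9.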
Setting [1] is: M. tuberculosis H37Rv growth inhibition, measured here: IC50 without meropenem.
Where [2] appears, read: M. tuberculosis H37Rv growth inhibition, measured here: IC90 without meropenem.
The mark [3] stands for this setting: measured here: IC90 with meropenem.

Activity calls are given as the source filed them. No rule for the calls is given here.

As usually defined, the IC50 is the point on the concentration scale where inhibition reaches its midpoint. Usually IC90 stands for the point of the concentration-response curve where the effect stands at 90%. With `O=C(CCS(=O)(=O)c1ccccc1)N(CCCN1CCOCC1)c1nc2c(F)cccc2s1`, the IC50 was 11.3 µM. Under setting [1], this molecule had an IC50 of more than 100 µM. The IC90 under setting [2] was more than 100 µM. The IC90 under setting [3] was more than 25 µM.
Turning to `O=[N+]([O-])c1cc(Cl)cc(/C=N/NC(=S)Nc2cc(S(=O)(=O)N3CCOCC3)ccc2Cl)c1O`, the IC50 is 6.3 µM. In addition, the IC50 under setting [1] was determined as 18.2 µM. Also, the IC90 under setting [2] was found to be 30.5 µM. The same molecule yielded an IC90 under setting [3] of 29.3 µM.
For `COC(=O)c1cc(OC)c(OC)cc1NC(=S)N1CCN(C)CC1` the same measures were > 100 µM (inactive), more than 100 µM, more than 100 µM and more than 100 µM.
For `O=c1[nH]c(=S)[nH]c(O)c1N=Nc1ccc2c(c1)OCCO2` the same measures were > 100 µM (inactive), more than 100 µM, more than 100 µM and more than 100 µM.
For `CC(=O)Nc1nonc1-c1nc2ccccc2n1CCC(C)C` the same measures were > 100 µM (inactive), more than 100 µM, more than 100 µM and more than 100 µM.
Consider `Cc1ccc(C2=NN(C(=O)CN3C(=O)c4ccccc4S3(=O)=O)C(c3ccco3)C2)cc1` (stereo not given), for which the IC50 is > 100 µM (inactive). Moreover, under setting [1], the IC50 was more than 100 µM. Under setting [2], the IC90 is more than 100 µM. In addition, the IC90 under setting [3] was more than 100 µM.
As to `COc1ccc(-c2csc(/C=C/c3ccc4c(c3)OCO4)n2)cc1OC`, the IC50 was 16.1 µM. For the same molecule, the IC50 under setting [1] was more than 100 µM. The IC90 under setting [2] is more than 100 µM. Under setting [3], this molecule displayed an IC90 of more than 100 µM.
As to `CCCc1cc(C(=O)Nc2ccc(C(C)=O)cc2)no1`, the IC50 was 11.7 µM (inactive). For the same molecule, the IC50 under setting [1] was 24.4 µM. Under setting [2], this molecule had an IC90 of more than 100 µM. The molecule further displayed an IC90 under setting [3] of 48.8 µM.
With `Cn1c(=O)c2ccccc2n2c(CCl)nnc12`, the IC50 is 1.22 µM. This molecule also gave an IC50 under setting [1] of 3.19 µM. The molecule further registered a concentration for an effect of 90% (IC90) under setting [2] of more than 100 µM. Further, the IC90 under setting [3] stood at 4.65 µM.
As to `Cc1cc(C)c(C)c(S(=O)(=O)N2C(=S)NC(=O)C2CC(C)C)c1C` (stereo not given), the IC50 is > 100 µM (inactive). Further, the IC50 under setting [1] is more than 100 µM. Under setting [2], this molecule came in with an IC90 of more than 100 µM. The molecule further showed an IC90 under setting [3] of more than 100 µM.
For `COc1cc(/C=C/C(=O)NC(C)(C)C)ccc1OCc1ccccc1`, the IC50 was > 100 µM (inactive). Under setting [1], this molecule registered a half-maximal inhibitory concentration (IC50) of more than 100 µM. The IC90 under setting [2] is more than 100 µM. Under setting [3], the IC90 was more than 100 µM.
Turning to `O=C1NC(c2ccc(Br)cc2)Nc2sc3c(c21)CCC3` (stereo not given), the IC50 is > 100 µM (inactive). For the same molecule, under setting [1], the IC50 was more than 100 µM. Further, the IC90 under setting [2] was more than 100 µM. Also, under setting [3], the IC90 was more than 100 µM.
As for `Nc1c(C(=O)c2cccs2)sc2nsc(SCCN3CCCCC3)c12`, the IC50 is > 100 µM (inactive). This molecule registered an IC50 under setting [1] of more than 100 µM. This molecule also registered an IC90 under setting [2] of more than 100 µM. The IC90 under setting [3] is more than 100 µM.
As to `CN1C(=O)/C(=C/c2ccc(C(=O)NC3CCCC3)cc2)Oc2ccccc21`, the IC50 is > 100 µM (inactive). Moreover, the IC50 under setting [1] was more than 100 µM. Moreover, the IC90 under setting [2] is more than 100 µM. In addition, the IC90 under setting [3] was more than 100 µM.
For the molecule `CCc1ccc(NC(=S)Nc2ccc3[nH]c(=O)[nH]c3c2)cc1`, the IC50 is > 100 µM (inactive). This molecule displayed an IC50 under setting [1] of more than 100 µM. The same molecule displayed an IC90 under setting [2] of more than 100 µM. Under setting [3], this molecule displayed a concentration for an effect of 90% (IC90) of more than 100 µM.
Turning to `CCOC(=O)c1sc2ccccc2c1NC(=O)c1coc2ccccc2c1=O`, the IC50 is > 100 µM (inactive). Under setting [1], this molecule had an IC50 of more than 100 µM. Under setting [2], this molecule displayed an IC90 of more than 100 µM. The same molecule showed an IC90 under setting [3] of more than 100 µM.
Take `Cc1ccc(C)c(N2CCN(CC3CC=CCC3)CC2)c1` (stereo not given): the IC50 is 25.6 µM. The same molecule yielded an IC50 under setting [1] of 79.8 µM. Also, the IC90 under setting [2] was more than 100 µM. The IC90 under setting [3] was 60.7 µM.
Take `Cc1ccc(-c2cc(C(=O)N/N=C/C=C/c3ccccc3)n[nH]2)o1`: the IC50 was > 100 µM (inactive). Besides, the IC50 under setting [1] was more than 100 µM. The molecule also registered an IC90 under setting [2] of more than 100 µM. In addition, the IC90 under setting [3] was more than 100 µM.
Take `Cc1ccc(C(=O)NN2C(=O)/C(=C/c3cccn3C)SC2=S)cc1`: the IC50 was > 100 µM (inactive). Under setting [1], the IC50 is more than 100 µM. Moreover, under setting [2], the IC90 was more than 100 µM. Besides, the IC90 under setting [3] is more than 100 µM.
As for `CCOc1ccccc1C(=O)Nc1cccc(-c2ccc3nncn3n2)c1`, the IC50 was 65.3 µM (inactive). The IC50 under setting [1] was more than 100 µM. Further, the IC90 under setting [2] was more than 100 µM. Also, under setting [3], the IC90 is more than 100 µM.
As to `Cc1cc(C2C(=O)c3ccccc3C2=O)c(C)c(C)c1C`, the IC50 is 3.79 µM. Also, the IC50 under setting [1] was found to be 34 µM. The IC90 under setting [2] was more than 100 µM. Under setting [3], the IC90 was found to be 16.4 µM.
For `Cn1cc(C(=O)N/N=C/C(Br)=C\c2ccccc2)ccc1=O` the same measures were > 100 µM (inactive), more than 100 µM, more than 100 µM and more than 100 µM.
`Cc1cc(N2CCN(c3ccccc3)CC2)nc2ccccc12`: the IC50 was > 100 µM (inactive). Also, under setting [1], the IC50 was more than 100 µM. For the same molecule, the IC90 under setting [2] is more than 100 µM. In addition, the IC90 under setting [3] is more than 100 µM.
For `O=C(COC(=O)c1ccc([N+](=O)[O-])s1)NCc1ccccc1`, the IC50 is 18.3 µM (inactive). Further, the IC50 under setting [1] worked out at 34.8 µM. The IC90 under setting [2] was more than 100 µM. Further, under setting [3], the IC90 stood at 39.4 µM.
`Cc1cccc(OCc2nc(-c3ccccn3)n[nH]2)c1`: the IC50 is 3.43 µM. The molecule further displayed an IC50 under setting [1] of 22.5 µM. Under setting [2], this molecule gave an IC90 of 25.6 µM. The molecule also came in with an IC90 under setting [3] of 7.37 µM.
`CC(C)(C)c1nn(-c2ccccc2)c2[nH]c(=O)c(CNc3ccc4c(c3)OCCO4)cc12`: the IC50 was 91.2 µM (inactive). This molecule also yielded an IC50 under setting [1] of 89.7 µM. For the same molecule, the IC90 under setting [2] was more than 100 µM. For the same molecule, under setting [3], the IC90 amounted to 99.7 µM.
For `COc1ccc(Br)cc1/C=N/NC(=O)CNC(=O)/C=C/c1ccccc1` the same measures were > 100 µM (inactive), more than 100 µM, more than 100 µM and more than 100 µM.
For `Fc1ccc(-c2csc(NC(=S)Nc3ccccc3)n2)cc1` the same measures were 7.55 µM, more than 100 µM, more than 100 µM and more than 50 µM.
In the case of `CCOC(=O)CNC(=O)CSc1ncnc2c1cnn2Cc1ccccc1`, the IC50 is > 100 µM (inactive). Under setting [1], this molecule showed an IC50 of more than 100 µM. This molecule also returned an IC90 under setting [2] of more than 100 µM. The molecule also yielded an IC90 under setting [3] of more than 100 µM.
For the molecule `N=C1C(c2nc(-c3ccc(Cl)cc3)cs2)=C(O)CN1CCCN1CCOCC1`, the IC50 was > 100 µM (inactive). Also, under setting [1], the IC50 was more than 100 µM. The molecule further registered an IC90 under setting [2] of more than 100 µM. For the same molecule, the IC90 under setting [3] is more than 100 µM.
Turning to `CSCC(=O)Nc1ccc(F)c(Cl)c1`, the IC50 was 10.1 µM (inactive). Besides, the IC50 under setting [1] came to 21.9 µM. Also, under setting [2], the IC90 was more than 100 µM. Also, the IC90 under setting [3] was more than 100 µM.
As for `O=c1oc(-c2ccccc2)nc2sc3c(c12)CCC3`, the IC50 is 32.2 µM. Also, the IC50 under setting [1] is more than 100 µM. Besides, the IC90 under setting [2] was more than 100 µM. For the same molecule, the IC90 under setting [3] is more than 100 µM.
Take `CCCCN(C)Cc1cc(=O)oc2cc3c(cc12)CCCC3`: the IC50 is 64.3 µM (inactive). This molecule yielded an IC50 under setting [1] of 80.1 µM. This molecule also came in with an IC90 under setting [2] of more than 100 µM. Besides, under setting [3], the IC90 was found to be 82.2 µM.
For `Cc1ccc(-c2nc3ccccc3o2)cc1NC(=S)NC(=O)/C=C/c1ccco1` the same measures were 65.8 µM (inactive), more than 100 µM, more than 100 µM and more than 100 µM.
For `C=CCC(Nc1ccccc1)C12C=CC(O1)C(C(=O)OC)=C2C(=O)OC` (stereo not given) the same measures were > 100 µM (inactive), more than 100 µM, more than 100 µM and more than 100 µM.
For `Cc1nc2ccccc2c(=O)n1/N=C/c1c(O)ccc2oc3c(c12)CCCC3` the same measures were > 100 µM (inactive), more than 100 µM, more than 100 µM and more than 100 µM.
As to `CCOC(=O)C(=CNc1ccc2c(c1)c1ccccc1n2CC)C(=O)OCC`, the IC50 is 15.2 µM. The same molecule displayed an IC50 under setting [1] of more than 100 µM. Under setting [2], this molecule returned an IC90 of more than 100 µM. The molecule further displayed an IC90 under setting [3] of more than 25 µM.
Turning to `Cc1cc(N2CCCCCC2)nc(-c2ccccc2O)n1`, the IC50 was 67.2 µM (inactive). For the same molecule, the IC50 under setting [1] was 91.3 µM. Further, under setting [2], the IC90 is more than 100 µM. Under setting [3], this molecule showed an IC90 of more than 100 µM.
Take `CCc1cc2c(=O)oc(-c3ccccc3F)nc2s1`: the IC50 is > 100 µM (inactive). The IC50 under setting [1] was more than 100 µM. For the same molecule, the IC90 under setting [2] was more than 100 µM. The same molecule showed an IC90 under setting [3] of more than 100 µM.
Turning to `Cc1ccc(OCC(=O)Nc2ccc3c4c(cccc24)CC3)c(C)c1`, the IC50 is 1.71 µM. This molecule also displayed an IC50 under setting [1] of more than 100 µM. In addition, the IC90 under setting [2] is more than 100 µM. Besides, the concentration for an effect of 90% (IC90) under setting [3] was more than 100 µM.
`O=C(OCC(=O)N(Cc1ccccc1)C1CCS(=O)(=O)C1)c1cc2c(s1)CCCC2` (stereo not given): the IC50 was 90.7 µM (inactive). Further, the IC50 under setting [1] amounted to 94.2 µM. Moreover, the IC90 under setting [2] was more than 100 µM. Further, the IC90 under setting [3] was more than 100 µM.
Regarding `COc1ccc(NC(=O)CCn2c(=O)c3cccn3c3ccccc32)cc1`, the IC50 is > 100 µM (inactive). Moreover, the IC50 under setting [1] was more than 100 µM. The molecule further registered an IC90 under setting [2] of more than 100 µM. Besides, the IC90 under setting [3] is more than 100 µM.
Regarding `O=C(NCCC1=CCCCC1)c1ccc(Cl)c([N+](=O)[O-])c1`, the IC50 is 25.9 µM (inactive). The IC50 under setting [1] is 54.3 µM. The molecule also showed an IC90 under setting [2] of more than 100 µM. Under setting [3], this molecule gave an IC90 of 30.2 µM.
With `O=C(O)CCN1C(=O)/C(=C/c2ccc(-c3nc4ccccc4s3)o2)SC1=S`, the IC50 was 38.3 µM (inactive). This molecule also registered an IC50 under setting [1] of 60.1 µM. In addition, the IC90 under setting [2] is more than 100 µM. In addition, the IC90 under setting [3] was determined as 78.4 µM.
Regarding `N#CC1=C2C=Cc3ccccc3N2CCCC1=O`, the IC50 is 21.6 µM. The molecule also gave an IC50 under setting [1] of 93.3 µM. Also, the IC90 under setting [2] is more than 100 µM. Under setting [3], this molecule came in with an IC90 of more than 100 µM.

The values are drawn from PubChem BioAssay AID434987 (Southern Research Specialized Biocontainment Screening …, 2010).
